Data reported in paper PMC8457121, “From Kinase Inhibitors to Multitarget Ligands as Powerful Drug Leads for Alzheimer's Disease using Protein‐Templated Synthesis” (Angewandte Chemie (International Ed. in English), 2021).
Blank lines part the entries; values can stand above or below the molecule they belong to.

Legend:
PAMPA-BBB test = type: in vitro ADME; settings: PAMPA-BBB; for Papp at 2.5 h / Pe exp: PBS pH 7.4/DMSO 95/5, 2.5 h, room temperature; for Papp at 2.5 h: read-out: Pe exp
Experimental: dissolved in 250 µL of DMSO (Sigma-Aldrich). 25 µL of these compound stock
solutions were taken and 225 µL of DMSO and 4750 µL of PBS pH 7.4 buffer
compound concentration in the range of 0.2 to 1.1 mM. Compounds to be
µL of DMSO and 4750 µL of PBS pH 7.4 was carefully added to afford a final
compound concentration in the range of 0.2 to 1.1 mM. Solutions were filtered
using filter PDVF membrane units (diameter 30 mm, pore size 0.45 μm, Symta).
10 µL of each solution were taken and diluted 10-fold with PBS/DMSO (95/5) for
HPLC-MS analysis. The acceptor 96-well plate (Multiscreen®, catalog no.
MAMCS9610, Millipore) was filled with 180 µL of PBS/DMSO (95/5). The donor
96-well plate (Multiscreen® IP Sterile Plate PDVF membrane, pore size is 0.45
M, catalog no. MAIPS4510, Millipore) was coated with 4 µL 20 mg·mL-1 of
for 5 min and then 180 µL of each compound solution was added. Then the donor
plate was put on the acceptor plate and kept for 2.5 h at room temperature. After
incubation, samples were collected from the acceptor plate and diluted 10-fold
with PBS/DMSO (95/5) for HPLC-MS analysis and compared to HPLC-MS of
initial solutions. Absorbance peak of each compound was determined by MS
detection and was used to calculate the concentration of compounds and
Every sample was analysed in two independent
runs. HPLC-MS was performed using a HPLC-MS equipment from Thermo
Fisher coupled to a Finnigan TM LXQ TM detector. Each compound was
analysed using a Sunfire column C18, 3.5 μm (50 mm x 4.6 mm) and acetonitrile
and Milli-Q water (with 0.1% formic acid) as mobile phase. The standard gradient

CK1δ = CK1δ (Homo sapiens, UniProt P48730); test: CK1δ inhibition enzymatic assay (Kinase-Glo); type: biochemical
Chain of CK1δ (P48730 whole entry): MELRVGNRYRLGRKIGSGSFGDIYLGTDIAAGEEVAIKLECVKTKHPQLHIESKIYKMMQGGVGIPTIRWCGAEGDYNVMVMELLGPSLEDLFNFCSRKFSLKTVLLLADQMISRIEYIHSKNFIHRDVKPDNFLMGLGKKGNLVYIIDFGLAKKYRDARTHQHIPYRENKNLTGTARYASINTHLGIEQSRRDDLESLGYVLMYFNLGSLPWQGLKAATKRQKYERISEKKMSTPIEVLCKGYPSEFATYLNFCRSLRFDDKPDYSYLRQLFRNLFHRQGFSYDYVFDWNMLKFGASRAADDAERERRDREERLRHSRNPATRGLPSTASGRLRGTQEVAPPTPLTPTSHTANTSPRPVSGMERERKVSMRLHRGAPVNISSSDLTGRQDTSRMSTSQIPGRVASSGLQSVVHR
Experimental: CK1δ inhibition enzymatic assay. The “Kinase-Glo” Kit from Promega was used to screen compounds for activity against CK1δ Kinase-Glo assays were performed in assay buffer using black 96-well plates. In a typical assay, 10 μl of test compound (dissolved in DMSO at 1 mM concentration and diluted in advance in assay buffer to the desired concentration) 10 μl (16 ng) of enzyme were added to each well followed by 20 µl of assay buffer containing 0,1 % casein as substrate […]
exceed 1%. After 60-min incubation at 30°C the enzymatic reaction was stopped […]
with 40 μl of Kinase-Glo reagent. Glow-type luminescence was recorded after 10 min using a FLUOstar Optima (BMG Labtechnologies GmbH, Offenburg, Germany) multimode reader. The activity is proportional to the difference of the total and consumed ATP. The inhibitory activities were calculated on the basis of maximal activities measured in the absence of inhibitor. The IC50 was defined as the concentration of each compound that reduces a 50% the enzymatic activity with respect to that without inhibitors. […]
Ibérica SAU). Kinase-Glo Luminescent Kinase Assay was obtained from Promega (Promega Biotech Ibérica, SL). ATP and all other reagents were from Sigma Aldrich (St. Louis, MO). Assay buffer contained 50 mM HEPES (pH 7.5), 1 mM EDTA, 1 mM EGTA, and 15 mM magnesium acetate. […]

BACE1 = BACE1 (Homo sapiens, UniProt P56817); test: BACE1 enzymatic assay (FRET); type: biochemical
Chain of BACE1 (P56817 46-501): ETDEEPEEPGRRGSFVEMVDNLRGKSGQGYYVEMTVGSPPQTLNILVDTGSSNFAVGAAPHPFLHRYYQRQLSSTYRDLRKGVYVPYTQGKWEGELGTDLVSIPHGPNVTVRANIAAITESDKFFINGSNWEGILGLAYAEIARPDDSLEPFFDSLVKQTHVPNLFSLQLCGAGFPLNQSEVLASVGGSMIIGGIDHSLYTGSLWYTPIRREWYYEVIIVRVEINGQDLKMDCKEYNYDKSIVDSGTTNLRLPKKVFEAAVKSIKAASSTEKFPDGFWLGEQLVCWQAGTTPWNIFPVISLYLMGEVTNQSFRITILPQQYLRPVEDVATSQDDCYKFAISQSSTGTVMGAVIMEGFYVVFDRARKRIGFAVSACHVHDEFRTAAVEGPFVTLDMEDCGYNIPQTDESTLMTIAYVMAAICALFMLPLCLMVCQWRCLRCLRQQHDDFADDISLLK
Experimental: BACE1 enzymatic assay. BACE1 in vitro assays were carried out using FRET.
μM) carrying the Swedish mutation and containing a rhodamine as a fluorescence donor and a quencher acceptor at each end was used. The intact substrate is weakly fluorescent and becomes highly fluorescent upon enzymatic cleavage.
The assays were conducted in 50 mM sodium acetate buffer, pH 4.5, in a final

Human recombinant GSK3β = molecular target: T1, Human recombinant GSK3β (Homo sapiens, UniProt P49841); test: GSK3β inhibition enzymatic assay (Kinase-Glo); type: biochemical
T1 construct: purchased Millipore (Millipore Ibérica SAU)
T1 sequence (P49841 whole entry): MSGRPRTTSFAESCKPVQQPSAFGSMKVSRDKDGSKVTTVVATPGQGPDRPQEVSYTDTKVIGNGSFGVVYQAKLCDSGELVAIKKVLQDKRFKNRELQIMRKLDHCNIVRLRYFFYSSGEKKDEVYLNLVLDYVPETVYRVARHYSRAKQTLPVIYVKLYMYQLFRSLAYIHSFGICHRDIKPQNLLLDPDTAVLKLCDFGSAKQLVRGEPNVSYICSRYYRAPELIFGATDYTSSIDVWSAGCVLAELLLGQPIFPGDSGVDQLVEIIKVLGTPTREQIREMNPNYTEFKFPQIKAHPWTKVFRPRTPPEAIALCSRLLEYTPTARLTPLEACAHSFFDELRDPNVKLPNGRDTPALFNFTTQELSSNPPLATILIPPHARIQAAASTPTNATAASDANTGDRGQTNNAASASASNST
Experimental: GSK3β inhibition enzymatic assay. Human recombinant GSK3β and the pre-phosphorylated polypeptide substrate were purchased from Millipore (Millipore Ibérica SAU). Kinase-Glo Luminescent Kinase Assay was obtained from Promega (Promega Biotech Ibérica, SL). ATP and all other reagents were from Sigma Aldrich (St. Louis, MO). Assay buffer contained 50 mM HEPES (pH 7.5), 1 mM EDTA, 1 mM EGTA, and 15 mM magnesium acetate.
Kinase-Glo assays were performed in assay buffer using black 96-well plates. In a typical assay, 10 μL (10 μM) of test compound (dissolved in DMSO) at 1 mM concentration and diluted in advance in assay buffer to the desired concentration) and 10 μL (20 ng) of enzyme were added to each well followed by 20 μL of assay buffer containing 25 μM substrate and 1 μM ATP. The final DMSO concentration […]
After 30 min incubation at 30 °C, the enzymatic reaction was stopped with 40 μL of Kinase-Glo reagent. Glow-type luminescence was recorded after 10 min using a FLUOstar Optima (BMG
Labtechnologies GmbH, Offenburg, Germany) multimode reader. The activity is proportional to the difference of the total and consumed ATP. The inhibitory activities were calculated based on maximal activities measured in the absence of inhibitor. The IC50 was defined as the concentration of each compound that reduces a 50 % the enzymatic activity with respect to that without inhibitors. […]

[1] = parameters: method as in earlier work; settings: PAMPA-BBB reported permeability ref 2; cited from earlier work
LRRK2 = molecular target: T2, LRRK2 (Homo sapiens, UniProt Q5S007); test: LRRK2 inhibition enzymatic assay (Adapta, ThermoFisher); type: biochemical
T2 construct: purchased ThermoFisher (assay run by the company)
T2 sequence (Q5S007 whole entry): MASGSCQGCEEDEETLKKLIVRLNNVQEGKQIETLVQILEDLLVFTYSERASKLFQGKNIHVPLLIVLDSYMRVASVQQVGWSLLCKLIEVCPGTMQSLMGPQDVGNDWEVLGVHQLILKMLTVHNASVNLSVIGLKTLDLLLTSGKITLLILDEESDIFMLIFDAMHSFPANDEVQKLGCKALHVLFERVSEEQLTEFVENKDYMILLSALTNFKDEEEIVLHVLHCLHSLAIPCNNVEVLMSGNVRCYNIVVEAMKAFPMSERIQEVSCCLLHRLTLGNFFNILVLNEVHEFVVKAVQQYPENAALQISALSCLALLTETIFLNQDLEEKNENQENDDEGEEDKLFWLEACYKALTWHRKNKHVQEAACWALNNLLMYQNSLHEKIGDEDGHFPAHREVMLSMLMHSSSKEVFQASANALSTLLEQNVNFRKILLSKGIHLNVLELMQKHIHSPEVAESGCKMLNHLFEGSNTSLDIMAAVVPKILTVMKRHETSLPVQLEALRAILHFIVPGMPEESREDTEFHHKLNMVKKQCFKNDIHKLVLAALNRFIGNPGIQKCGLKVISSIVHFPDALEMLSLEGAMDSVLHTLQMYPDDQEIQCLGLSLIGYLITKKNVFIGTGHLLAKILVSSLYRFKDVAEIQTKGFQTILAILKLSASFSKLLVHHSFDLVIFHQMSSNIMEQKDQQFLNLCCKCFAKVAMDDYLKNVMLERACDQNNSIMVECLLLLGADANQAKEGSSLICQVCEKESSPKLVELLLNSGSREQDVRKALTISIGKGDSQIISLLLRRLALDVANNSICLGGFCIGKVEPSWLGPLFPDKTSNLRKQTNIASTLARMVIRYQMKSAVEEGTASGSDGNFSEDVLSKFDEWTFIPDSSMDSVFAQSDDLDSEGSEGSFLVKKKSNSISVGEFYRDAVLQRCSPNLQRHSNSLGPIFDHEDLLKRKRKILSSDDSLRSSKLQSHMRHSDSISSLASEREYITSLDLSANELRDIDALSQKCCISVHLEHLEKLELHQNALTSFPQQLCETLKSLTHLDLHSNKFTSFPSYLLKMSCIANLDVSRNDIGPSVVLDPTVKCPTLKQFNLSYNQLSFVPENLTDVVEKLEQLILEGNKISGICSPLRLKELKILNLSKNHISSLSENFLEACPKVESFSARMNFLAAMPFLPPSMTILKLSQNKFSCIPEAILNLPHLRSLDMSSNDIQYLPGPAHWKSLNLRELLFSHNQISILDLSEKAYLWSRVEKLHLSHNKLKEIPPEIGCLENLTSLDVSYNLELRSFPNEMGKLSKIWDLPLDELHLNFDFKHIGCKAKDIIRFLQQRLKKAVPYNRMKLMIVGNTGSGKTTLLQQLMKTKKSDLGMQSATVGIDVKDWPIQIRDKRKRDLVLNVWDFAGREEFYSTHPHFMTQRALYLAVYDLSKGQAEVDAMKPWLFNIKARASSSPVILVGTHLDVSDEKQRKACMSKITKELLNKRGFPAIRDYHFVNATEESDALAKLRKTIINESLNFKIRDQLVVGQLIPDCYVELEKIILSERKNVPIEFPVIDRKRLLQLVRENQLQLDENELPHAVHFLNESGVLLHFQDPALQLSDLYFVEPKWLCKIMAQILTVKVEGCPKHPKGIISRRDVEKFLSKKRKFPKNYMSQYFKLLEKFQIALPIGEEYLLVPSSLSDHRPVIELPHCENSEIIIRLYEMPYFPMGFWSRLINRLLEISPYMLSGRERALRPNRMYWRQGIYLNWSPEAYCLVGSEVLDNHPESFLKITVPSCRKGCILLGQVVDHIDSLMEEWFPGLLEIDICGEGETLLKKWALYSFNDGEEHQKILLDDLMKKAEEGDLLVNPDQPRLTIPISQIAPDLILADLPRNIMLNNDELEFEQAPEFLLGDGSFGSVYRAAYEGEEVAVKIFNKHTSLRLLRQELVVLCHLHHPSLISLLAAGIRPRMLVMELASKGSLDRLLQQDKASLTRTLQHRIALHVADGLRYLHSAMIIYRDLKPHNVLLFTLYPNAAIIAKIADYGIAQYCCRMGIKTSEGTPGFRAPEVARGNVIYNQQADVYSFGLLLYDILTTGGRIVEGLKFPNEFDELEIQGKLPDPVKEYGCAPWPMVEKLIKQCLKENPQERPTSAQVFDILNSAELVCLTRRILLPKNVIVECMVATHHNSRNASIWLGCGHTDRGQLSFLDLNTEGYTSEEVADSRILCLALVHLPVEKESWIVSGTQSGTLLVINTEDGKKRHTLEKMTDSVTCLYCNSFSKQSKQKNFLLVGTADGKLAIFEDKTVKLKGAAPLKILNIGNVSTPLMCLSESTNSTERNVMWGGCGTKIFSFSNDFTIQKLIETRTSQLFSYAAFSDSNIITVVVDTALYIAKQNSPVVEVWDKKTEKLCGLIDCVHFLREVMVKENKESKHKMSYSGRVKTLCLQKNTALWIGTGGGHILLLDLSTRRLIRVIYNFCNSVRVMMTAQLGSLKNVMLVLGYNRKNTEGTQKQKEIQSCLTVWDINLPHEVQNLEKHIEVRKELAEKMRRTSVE

SK-APP cells = test: Aβ40 and Aβ42 levels in SK-APP cells (sandwich ELISA); type: cell-based, human; settings: 10 μM, 48 h treatment
Experimental: page 35: enzyme concentration (1 U/mL). Inhibitor screening at 10 μM. The mixture was incubated for 60 min at 25 °C under dark conditions and then stopped with 2.5 M sodium acetate. Fluorescence was measured with a FLUOstar Optima (BMG Labtechnologies GmbH, Offenburg, Germany) microplate reader at 545 nm excitation and 585 nm emission. Evaluation of BACE Inhibitors Kinetics. To evaluate the mechanism of BACE1 inhibition of the compounds, substrate-dependent kinetic experiments were performed. BACE activity were measured at five different concentrations substrate (1000 -62,5 μM) in the absence or presence of the select inhibitor at two different concentrations. The results are presented as double reciprocal Lineweaver-Burk plots (1/V vs 1/[S]) Figure S1. Cell culture and treatments. SK-N-MC cells stably expressing the human isoform APP695 (SK-APP cell line […]1) were generated by transfection of SK-N-MC cells with a pCDNA3-APP expression vector, and kindly provided by Dr. MJ Bullido. These cells were cultured in DMEM (Thermo Fisher) medium supplemented with 10% FBS (Thermo Fisher), 1 mM glutamine (Sigma- Aldrich), and 100 unit/ml penicillin (Lonza) and […] streptomycin (Lonza). Cell cultures were maintained in a 5% CO2, humidified atmosphere at 37 °C. SH-SY5Y cells were obtained from the American Type Culture Collection and grown in DMEM media (Gibco), supplemented with 10% foetal bovine serum, and 1% penicillin/streptomycin (Invitrogen). The cells were grown at 37 °C in a humidified 5% CO2 atmosphere. For the treatments, all the compounds were dissolved in dimethyl sulfoxide (DMSO, from Sigma) at an initial stock concentration of 10 mM. […] working solutions were obtained from the dilution of the stock solutions in DMEM media (DMSO control solutions were prepared similarly to the compounds). Okadaic acid (OA, Sigma-Aldrich) was dissolved in DMSO at an initial stock concentration of 60 μM and a 250X working solution was obtained from the dilution of the stock solution in DMEM. All the compounds (250x solutions) were added directly into the wells at the indicated final concentrations for 1 hour before the treatment with OA at a final concentration of 30 nM. DMSO was added at the appropriate concentration to the 34 page 36: control-untreated cells. The cells were maintained in the presence of the OA and the different compounds for 24h. Measurement of cell viability. Cell viability assays were carried out using a 3- […] (Sigma-Aldrich) in 96-well cell culture plates. All cells were then incubated with a 0.5 mg/ml MTT solution (Sigma-Aldrich) at 37 °C for 4 h and then with cell lysis […] The absorbance values were determined at 590 nm. Cell viability was expressed as a percent of OD of control cells, the value of which was defined as 100%. Cell viability in SH-SY5Y were carried out following the same procedure but seeding the cells in 24 well multiplates. Absorbance was measured using a Varioskan Flash multiplate reader (Thermo Scientific) at test 550 nm and reference 664 nm wave-lengths. Compound concentration for SK-APP line was 10 μM and for the SH-SY5Y was 1 and 5 μM. Immunoassays. Levels of Aβ40 and Aβ42 were quantified by sandwich ELISAs (Wako, Osaka, Japan) from cellular lysates and conditioned media collected. CNS penetration: in vitro PAMPA-BBB test. Prediction of the brain penetration was evaluated using a parallel artificial membrane permeability assay (PAMPA).1 Nine quality control compounds (mentioned below) of know BBB permeability were included in each experiment to validate the analysis set.2 Commercial drugs […] dissolved in 250 μL of DMSO (Sigma-Aldrich). 25 μL of these compound stock solutions were taken and 225 μL of DMSO and 4750 μL of PBS pH 7.4 buffer were added to reach 5% of DMSO concentration in the experiment and a final […] Compounds to be determined their ability to pass the brain barrier (0.5-1 mg) were dissolved in 250 μL of DMSO and 4750 μL of PBS pH 7.4 was carefully added to afford a final […]

SH-SY5Y cells = test: Okadaic acid-induced cell death model, viability of SH-SY5Y cells; type: cell-based, human; settings: OA 30 nM, 24 h, compound 1 and 5 µM
Experimental: page 35: enzyme concentration (1 U/mL). Inhibitor screening at 10 μM. The mixture was incubated for 60 min at 25 °C under dark conditions and then stopped with 2.5 M sodium acetate. Fluorescence was measured with a FLUOstar Optima (BMG Labtechnologies GmbH, Offenburg, Germany) microplate reader at 545 nm excitation and 585 nm emission. Evaluation of BACE Inhibitors Kinetics. To evaluate the mechanism of BACE1 inhibition of the compounds, substrate-dependent kinetic experiments were performed. BACE activity were measured at five different concentrations substrate (1000 -62,5 μM) in the absence or presence of the select inhibitor at two different concentrations. The results are presented as double reciprocal Lineweaver-Burk plots (1/V vs 1/[S]) Figure S1. Cell culture and treatments. […] The absorbance values were determined at 590 nm. Cell viability was expressed as a percent of OD of control cells, the value of which was defined as 100%. […] Absorbance was measured using a Varioskan Flash multiplate reader (Thermo Scientific) at test 550 nm and reference 664 nm wave-lengths. […] Levels of Aβ40 and Aβ42 were quantified by sandwich ELISAs (Wako, Osaka, Japan) from cellular lysates and conditioned media collected. […] Compounds to be determined their ability to pass the brain barrier (0.5-1 mg) were dissolved in 250 μL of DMSO and 4750 μL of PBS pH 7.4 was carefully added to afford a final […]

SMILES: Cn1c(=O)c2c(ncn2C)n(C)c1=O [Caffeine, caffeine, reference compound]
Papp at 2.5 h (PAMPA-BBB test): 1.45 ± 0.26 ×10⁻⁶ cm/s

SMILES: CNCCCN1c2ccccc2CCc2ccccc21 [Desipramine, desipramine, reference compound]
Papp at 2.5 h (PAMPA-BBB test): 7.44 ± 0.9 ×10⁻⁶ cm/s

SMILES: CCn1cc(C(=O)O)c(=O)c2cc(F)c(N3CCNCC3)nc21 [Enoxacine, enoxacine, reference compound]
Pe exp (PAMPA-BBB test): 1.41 ± 0.05 10-6 cm s-1

SMILES: CCn1sc(=O)n(Cc2ccccc2)c1=O [MBC-2138, reference compound]
IC50 (Human recombinant GSK3β): 530 ± 30 nM
IC50 (BACE1): > 20000 nM

Continued, in another order:

IC50 (CK1δ): 330 ± 30 nM
IC50 (BACE1): > 20000 nM
SMILES: O=C(Cc1ccccc1)Nc1nc2ccccc2s1 [MBC-858, reference compound]

Papp at 2.5 h (PAMPA-BBB test): 2.92 ± 0.37 ×10⁻⁶ cm/s
SMILES: CN1C(C(=O)Nc2ccccn2)=C(O)c2ccccc2S1(=O)=O [Piroxicam, piroxicam, reference compound]
Pe Bibl. [1]: 2.5 10-6 cm s-1

Papp at 2.5 h (PAMPA-BBB test): 5.18 ± 0.43 ×10⁻⁶ cm/s
SMILES: CN(C)CCCN1c2ccccc2Sc2ccccc21 [Promazine, promazine, reference compound]
Pe Bibl. [1]: 8.8 10-6 cm s-1

IC50 (LRRK2): 1880 nM
IC50 (BACE1): 7140 nM
SMILES: O=C(Nc1nc2ccccc2s1)c1ccc(CSCCCSCc2ccc(C(=O)Nc3nc4ccccc4s3)cc2)cc1 [compound 3]

IC50 (LRRK2): 820 ± 140 nM
IC50 (Human recombinant GSK3β): 2360 ± 270 nM
IC50 (BACE1): 3310 ± 270 nM
Pe exp (PAMPA-BBB test): 0 10-6 cm s-1
SMILES: CCn1sc(=O)n(Cc2cn(Cc3ccc(C(=O)Nc4nc5ccccc5s4)cc3)nn2)c1=O [compound 14]
Aβ42 levels in cellular lysates (intracellular) (SK-APP cells): unchanged
Aβ42 levels in extracellular fluid (SK-APP cells): significant decrease
Neuroprotection against okadaic acid (OA) toxicity (SH-SY5Y cells): rescue from the toxic effect of OA
CNS prediction (PAMPA-BBB test): CNS- (CNS‐ (red) for compounds with Pe <1.88×10^−6 cm s^−1)
